Type in all cases: cell-based
The test system of assay [1] is Staphylococcus aureus. Put plainly: MIC by broth microdilution, antibiotics with and without ALAFAC. As to conditions: for MIC: antibiotic alone. As to the method: (§1) Methodology: Minimal inhibitory concentrations (MICs) were determined in 96-well microtiter plates using the microdilution method according to approved standards of the CLSI except that Todd-Hewitt medium supplemented with 0.5% yeast extract, which yields reproducible MIC results was used as the test medium for S. pneumoniae. For the remaining species Mueller-Hinton medium was used as indicated by the CLSI standard. Each well contained two-fold dilutions of antibiotic, was seeded with a final bacterial concentration of 10^5 CFU/mL, and was incubated for 18 h at 37° C. in a Synergy II microplate reader (Biotek, Winooski, Vt.) where the OD600 was recorded every 5 minutes to monitor bacterial growth. The MIC was defined as the lowest concentration of antimicrobial agent solution at which no increase in OD600 was detected.
In vitro susceptibility tests. Minimal inhibitory concentrations (MICs) were determined in 96-well microtiter plates using the microdilution method according to approved standards of the CLSI as described previously. However, rather than Mueller-Hinton broth, Tryptic soy broth (TSB) was used for susceptibility testing as it is the common media used for Staphylococcal growth, and as it has shown more consistent results for a variety of antimicrobials when tested against Staphylococci. […] A two-fold dilution series of antibiotics in triplicate and in the presence or absence of ALAFAC was prepared in 96 well microtiter plates, and each well was seeded with a final bacterial concentration of 10^5 CFU/mL, and was incubated for 24 h at 37° C. in a Synergy 2 microplate reader (Biotek, Winooski, Vt.) where the Optical Density at 600 nm (OD600) was recorded every 5 minutes to monitor bacterial growth. The MIC was defined as the lowest concentration of antimicrobial agent solution where no increase in OD600 was detected.
Background: Dilution methods test growth across graded concentrations, often in twofold steps.

Assay [2] has as its system Streptococcus pneumoniae. The assay is described as above. As to the method: as §1
In vitro susceptibility tests. Minimal inhibitory concentrations (MICs) were determined in 96-well microtiter plates using the microdilution method according to approved standards of the CLSI except that Todd-Hewitt medium supplemented with 0.5% yeast extract, which yields reproducible MIC results was used as the test medium for S. pneumoniae. MICs for A. baumanni, and M. catarrhalis were determined in MH media. Two-fold dilutions of a starting antibiotic concentration was added in triplicate into microtiter plate wells (in 96-well plates), were seeded with a final bacterial concentration of ˜10^5 colony forming units (CFU)/mL, and was incubated for 18 h in ambient air at 37° C. in a Synergy II microplate reader (Biotek, Winooski, Vt.) where the OD600 was recorded every 5 minutes to monitor bacterial growth. The MIC was defined as the lowest concentration of antimicrobial agent solution at which no increase in OD600 was detected.

Assay [3] deals with Streptococcus pneumoniae. Briefly: Short-time kill assay on planktonic cultures. As to conditions: for Minimum antibiotic concentration for bactericidal (>3 log10) activity, planktonic: within 4-6 hours, antibiotic alone.
Assay [4] concerns Streptococcus pneumoniae biofilms. Briefly: Static biofilm model, viable counts. As to conditions: for Biofilm killing: alone or combined; for Minimum antibiotic concentration for bactericidal (>3 log10) activity on biofilms: within 4-6 hours, antibiotic alone. As to the method:
Methodology: Pneumococci were grown statically in CDM and S. aureus were grown in trypic soy medium to mid-logarithmic phase (OD600=0.5), washed, and resuspended in fresh pre-warmed medium to a density of 2×10^4 CFU in 500 μl volume, and suspensions were used to seed sterile round glass coverslips in the bottom of polystyrene 24-well plates with or without a substratum of confluent H292 epithelial cells. Biofilms were cultured at 34° C. in 5% CO2 for indicated times with change of culture media every 12 hours and to assess biomass and antibiotic resistance by viable counts (as described).
Biofilms were then washed in PBS and detached by scraping the surface in the presence of 100 μL PBS followed by a rinse with 100 μL PBS. Collected cells were sonicated in a sonication water bath for 2 s followed by vortexing twice for 20 seconds at high speed and the dispersed biofilm cells were used to determine viable CFUs per ml from diluted samples plated and grown on blood agar.
Static Biofilm Model. Pneumococci were grown in CDM to mid-logarithmic phase (OD600=0.5), washed, and resuspended in fresh pre-warmed medium to a density of 2×10^4 CFUs in 500 μl volume, and suspensions were used to seed sterile round glass coverslips in the bottom of polystyrene 24-well plates with a substratum of confluent H292 epithelial cells as described. Biofilms were cultured at 34° C. in 5% CO2 for indicated times with change of culture media every 12 hours and used for SEM studies or to assess biomass and antibiotic resistance by viable plate counts.
Biofilms were then washed in PBS, dispersed by sonication, and collected by pipetting in 100 μL PBS followed by a rinse with 100 μL PBS. Collected cells were then vortexed twice for 20 seconds at high speed and the dispersed biofilm cells were used to determine viable CFUs per ml from diluted samples plated and grown on blood agar. Results are reported as the total number of CFUs per biofilm.

Setting [5] is: D39 48 h biofilm (8.3 log10) on epithelial substratum, 250 μg/ml ALAFAC, 100 μg/ml penicillin.
[6] abbreviates: SP670 biofilm, ALAFAC 250 μg/mL, penicillin 100 μg/mL.
The mark [7] stands for this setting: S. pneumoniae EF3030, agent alone.
The mark [8] stands for this setting: S. pneumoniae in liquid culture.
The mark [9] stands for this setting: D39, 1 hour, ALAFAC 50 μg/ml, gentamicin 50 μg/ml, alone or combined, 7.7 log10 inoculum.
Where [10] appears, read: EF3030 48 h biofilm (7.5 log), 100 μg/mL ALAFAC, 200 μg/ml gentamicin, 3 hours.

“Also recorded” adds a separate entry of the source. Where two headings read alike, the source gives them in different places. Bounds are passed on as bounds.

What is called MIC is the lowest concentration that inhibits growth of the organism.

Turning to `COc1cccc(OC)c1C(=O)N[C@@H]1C(=O)N2[C@@H]1SC(C)(C)[C@@H]2C(=O)O` [Methicillin, methicillin], the MIC in assay [1] (Staphylococcus aureus, S. aureus 10307570, read-out: MIC) is 16 µg/mL; in assay [1] (Staphylococcus aureus, S. aureus 11090306 (MSSA), read-out: MIC), 2 µg/mL; in assay [1] (Staphylococcus aureus, S. aureus NRS1, read-out: MIC), over 128 µg/mL; in assay [1] (Staphylococcus aureus, S. aureus NRS70, read-out: MIC) it was 32 µg/mL; in assay [1] (Staphylococcus aureus, S. aureus NRS71, read-out: MIC), over 128 µg/mL; in assay [1] (Staphylococcus aureus, S. aureus NRS100, read-out: MIC), over 128 µg/mL. For the same molecule, the MIC in assay [1] (Staphylococcus aureus, S. aureus NRS123, read-out: MIC) stood at 32 µg/mL; in assay [1] (Staphylococcus aureus, S. aureus NRS384, read-out: MIC), 16 µg/mL.

`CC1(C)S[C@@H]2[C@H](NC(=O)Cc3ccccc3)C(=O)N2[C@H]1C(=O)O` [Penicillin, penicillin G]: the MIC in assay [2] (Streptococcus pneumoniae, S. pneumoniae D39, agent alone, read-out: MIC) turned out to be 0.01 µg/mL; in assay [2] (Streptococcus pneumoniae, S. pneumoniae EF3030, agent alone, read-out: MIC) it was 0.01 µg/mL; in assay [2] (Streptococcus pneumoniae, S. pneumoniae SP670 (penicillin-resistant), agent alone, read-out: MIC) it was 4 µg/mL. The “Short-time killing (death of inoculum)” value in assay [3] (D39, 4 hours, ALAFAC 50 μg/ml, penicillin G 20 μg/ml, alone or combined, 7.5 log10 inoculum) was “no bactericidal activity; also recorded: no death”. Besides, the Short-time killing in assay [3] (D39, penicillin G alone at 5,000 μg/ml, 4 hours) was at most 2.6 log10; in assay [3] (D39, penicillin alone at 50-fold higher concentration (1,000 μg/ml), 4 hours) it was at most 2.6 log10; in assay [3] (SP670, penicillin 30 μg/mL alone or with ALAFAC 50 μg/mL, 4 hours), “no bactericidal activity”. Also, the Bactericidal activity alone entry in assay [3] (D39 and EF3030, 1 hour, penicillin G up to 5,000 μg/ml, erythromycin up to 1,000 μg/ml) is on record as “lacked any bactericidal activity”. Moreover, the “Minimum antibiotic concentration for bactericidal (>3 log10) activity, planktonic” value in assay [3] (S. pneumoniae D39) and in assay [3] (S. pneumoniae SP670) was >5,000 μg/ml in each case. Further, the figures for the Biofilm killing result in assay [4] (setting [5]) and in assay [4] (setting [6]) were “not bactericidal” and “almost complete resistance”, respectively. Further, the “Minimum antibiotic concentration for bactericidal (>3 log10) activity on biofilms” value in assay [4] (S. pneumoniae D39 biofilm) and in assay [4] (S. pneumoniae SP670 biofilm) was over 5000 μg/ml throughout.

Turning to gentamicin, the minimal inhibitory concentration (MIC) in assay [2] (S. pneumoniae D39, agent alone) was 16 µg/mL; in assay [2] (setting [7]), 16 µg/mL; in assay [2] (setting [8]) it was 16 µg/mL; in assay [1] (S. aureus NRS1), over 128 µg/mL; in assay [1] (S. aureus NRS384) it was 1 µg/mL. Further, the Short-time killing entry in assay [3] (setting [9]) is “insignificant killing”; in assay [3] (gentamicin alone at high concentrations, up to 1,000 μg/ml, 1 hour) it was 1.4 log10; in assay [3] (gentamicin alone at high concentrations, up to 1,000 μg/ml, 1 hour, listed as gentamicin) it was at most 1.4 log10. Further, the “Minimum antibiotic concentration for bactericidal (>3 log10) activity, planktonic” value in assay [3] (S. pneumoniae D39) and in assay [3] (S. pneumoniae EF3030) was over 500 μg/ml each time. Also, the Biofilm killing in assay [4] (setting [10]) is listed as 1.1 log. Further, the Biofilm bactericidal activity entry in assay [4] (EF3030 48 h biofilm, gentamicin 200 or 500 μg/mL alone or with 100 μg/mL ALAFAC, 3 hours) was “Neither concentration of gentamicin was bactericidal”. For the same molecule, the “Minimum antibiotic concentration for bactericidal (>3 log10) activity on biofilms” value in assay [4] (S. pneumoniae D39 biofilm) and in assay [4] (S. pneumoniae EF3030 biofilm) was over 600 μg/ml throughout.

B1: ALAFAC: non-covalent complex of alpha-lactalbumin and fatty acid (oleic acid); labeled HAMLET or HL in drawings and tables (protein, UniProt P00709 20-142, looked up)
Alpha-lactalbumin: KQFTKCELSQLLKDIDGYGGIALPELICTMFHTSGYDTQAIVENNESTEYGLFQISNKLWCKSSQVPQSRNICDISCDKFLDDDITDDIMCAKKILDIKGIDYWLAHKALCTEKLEQWLCEKL
modifications: complexed with oleic acid
For B1, the MIC in assay [2] (S. pneumoniae D39, agent alone) was 20 µg/mL; in assay [2] (setting [7]), 20 µg/mL; in assay [2] (S. pneumoniae JY53 (erythromycin-resistant), agent alone) it was 20 µg/mL; in assay [2] (S. pneumoniae SP670 (penicillin-resistant), agent alone), 20 µg/mL; in assay [2] (setting [8]) it was “≈ 20 μg/ml”. The “[HL] to sensitize” value in assay [1] (10307570, sensitive to methicillin) was 6 µM; in assay [1] (11090306, sensitive to methicillin), 0 µM; in assay [1] (NRS1, sensitive to gentamicin), 48 µM; in assay [1] (NRS1, sensitive to methicillin) it was 48 µM; in assay [1] (NRS1, sensitive to vancomycin) it was 18 µM; in assay [1] (NRS70, sensitive to methicillin) it was 3 µM. Further, the “[HL] to sensitize” value in assay [1] (NRS71, sensitive to methicillin) turned out to be 54 µM; in assay [1] (NRS100, sensitive to methicillin), 18 µM; in assay [1] (NRS123, sensitive to erythromycin), 0 µM; in assay [1] (NRS123, sensitive to methicillin), 12 µM; in assay [1] (NRS384, sensitive to erythromycin) it was 6 µM; in assay [1] (NRS384, sensitive to gentamicin) it was 0 µM. In addition, the “[HL] to sensitize” value amounted to 6 µM in assay [1] (NRS384, sensitive to methicillin) and 0 µM in assay [1] (NRS384, sensitive to vancomycin). The “Additional ALAFAC required for equivalent adjuvant activity” value in assay [1] (Mueller Hinton broth versus TSB) is “approximately 20%”. Further, the “Concentration of ALAFAC alone without activity” value in assay [1] (any of the S. aureus strains tested) was “exceeding 5,000 μg/ml”. In addition, in assay [1] (methicillin, gentamicin, erythromycin and vancomycin), the “ALAFAC concentration required to convert all antibiotic-resistant strains to sensitivity” value is “at most 54 μM”. The Short-time killing entry in assay [3] (setting [9]) is “insignificant killing”; in assay [3] (D39, 4 hours, ALAFAC 50 μg/ml, erythromycin 200 μg/ml, alone or combined, 7.2 log10 inoculum), “insignificant bactericidal activity”. The “Fold higher concentration of ALAFAC alone required for activity similar to the combination” value in assay [3] (D39, versus 50 μg/ml ALAFAC + 20 μg/ml penicillin G, 4 hours) is listed as over 5 fold. Further, the “Concentration required to eradicate each inoculum” value in assay [3] (all pneumococcal strains, 1 hour) is listed as “approximately 15 times the MIC”. Also, the “Concentration to eradicate an inoculum of 10^8 pneumococci” value in assay [3] (time-kill assay, 1 hour) was 300 μg/ml. The Biofilm killing result in assay [4] (setting [5]) is given as “not bactericidal”; in assay [4] (setting [10]), “no bactericidal activity”; in assay [4] (setting [6]) it was “almost complete resistance”.

Source of the values: patent US9526766B2, “Potentiation of antibiotic treatment with a protein-lipid complex” (priority 2012, dated 2016).
